The record followed here is ChEMBL document CHEMBL1141161, “Structure of aldehyde reductase holoenzyme in complex with the potent aldose reductase inhibitor fidarestat: implications for inhibitor binding and selectivity” (J Med Chem, 2005).

This assay has as its target T1, Aldo-keto reductase family 1 member A1 (Sus scrofa, UniProt P50578).
T1 sequence (P50578 whole entry): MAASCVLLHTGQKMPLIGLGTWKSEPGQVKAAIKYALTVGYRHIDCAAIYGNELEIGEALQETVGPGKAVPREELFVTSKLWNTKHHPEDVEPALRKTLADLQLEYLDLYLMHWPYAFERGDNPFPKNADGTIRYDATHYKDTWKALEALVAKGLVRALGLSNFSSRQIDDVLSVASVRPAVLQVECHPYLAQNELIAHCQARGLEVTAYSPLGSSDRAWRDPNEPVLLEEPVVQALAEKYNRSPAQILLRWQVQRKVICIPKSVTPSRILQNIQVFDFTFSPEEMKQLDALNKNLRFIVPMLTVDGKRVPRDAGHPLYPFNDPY
Description: Inhibitory concentration against porcine ALR1 Aldehyde reductase using DL-glyceraldehyde.

`NC(=O)[C@@H]1C[C@]2(NC(=O)NC2=O)c2cc(F)ccc2O1`: the midpoint of inhibition, the IC50, lay at 2.5 µM.

In turn, `NC(=O)[C@H]1C[C@]2(NC(=O)NC2=O)c2cc(F)ccc2O1` displayed an IC50 of 17.8 µM.
